According to PubChem BioAssay (NCI):
Several values for one entry are separate records, joined by “and”; a condition that tells them apart may be missing. Equal values may be shown once.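 Cultured in 96-well plates, cells were exposed to test compound for 48 hours across five concentrations. Abbreviation: GI50, concentration required for 50% inhibition of growth. The concentration for full growth arrest is given as TGI.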

Assays:
Experiment in all cases: DTP human tumour cell line panel, 48 h; in the data active means GI50 below about 0.43 µM; inactive means the rest
MDA-MB-435 = test system: MDA-MB-435
HCT-15 colon = test system: HCT-15 colon
786-0 renal = test system: 786-0 renal
NCI-H226 lung = test system: NCI-H226 lung
PC-3 prostate = test system: PC-3 prostate
U251 CNS = test system: U251 CNS
MCF7 breast = test system: MCF7 breast
EKVX NSCLC = test system: EKVX NSCLC
OVCAR-4 ovarian = test system: OVCAR-4 ovarian
SK-MEL-2 melanoma = test system: SK-MEL-2 melanoma
COLO 205 colon = test system: COLO 205 colon
SNB-75 CNS = test system: SNB-75 CNS
OVCAR-5 ovarian = test system: OVCAR-5 ovarian
K-562 leukemia = test system: K-562 leukemia
OVCAR-8 ovarian = test system: OVCAR-8 ovarian
HCT-116 colon = test system: HCT-116 colon
SF-295 CNS = test system: SF-295 CNS
SK-MEL-28 melanoma = test system: SK-MEL-28 melanoma
ACHN renal = test system: ACHN renal
HOP-92 NSCLC = test system: HOP-92 NSCLC
KM12 colon = test system: KM12 colon
CAKI-1 renal = test system: CAKI-1 renal
IGROV1 ovarian = test system: IGROV1 ovarian
HT29 colon = test system: HT29 colon
NCI-H23 lung = test system: NCI-H23 lung
NCI-H460 lung = test system: NCI-H460 lung
SK-MEL-5 melanoma = test system: SK-MEL-5 melanoma
MDA-MB-231 breast = test system: MDA-MB-231 breast
A498 renal = test system: A498 renal
HOP-62 NSCLC = test system: HOP-62 NSCLC
UACC-257 melanoma = test system: UACC-257 melanoma
RXF 393 renal = test system: RXF 393 renal
DU-145 prostate = test system: DU-145 prostate
MALME-3M melanoma = test system: MALME-3M melanoma
SNB-19 CNS = test system: SNB-19 CNS
RPMI-8226 leukemia = test system: RPMI-8226 leukemia
M14 melanoma = test system: M14 melanoma
BT-549 breast = test system: BT-549 breast
TK-10 renal = test system: TK-10 renal
CCRF-CEM leukemia = test system: CCRF-CEM leukemia
HL-60(TB) leukemia = test system: HL-60(TB) leukemia
MDA-N = test system: MDA-N
SF-268 CNS = test system: SF-268 CNS
HCC-2998 colon = test system: HCC-2998 colon
OVCAR-3 ovarian = test system: OVCAR-3 ovarian
UACC-62 melanoma = test system: UACC-62 melanoma
SK-OV-3 ovarian = test system: SK-OV-3 ovarian
NCI/ADR-RES ovarian = test system: NCI/ADR-RES ovarian
LOX IMVI melanoma = test system: LOX IMVI melanoma
A549 NSCLC = test system: A549 NSCLC
UO-31 renal = test system: UO-31 renal
NCI-H522 lung = test system: NCI-H522 lung
SW-620 colon = test system: SW-620 colon
MOLT-4 leukemia = test system: MOLT-4 leukemia
SF-539 CNS = test system: SF-539 CNS
SN12C renal = test system: SN12C renal
SR leukemia = test system: SR leukemia
HS 578T breast = test system: HS 578T breast
T-47D breast = test system: T-47D breast

N#CC1C(=O)NC23CCCCC2C1c1ccccc1O3 (stereo not drawn)
> 100 µM: TGI (MDA-MB-435) | TGI (HCT-15 colon) | TGI (786-0 renal) | TGI (NCI-H226 lung) | TGI (PC-3 prostate) | TGI (U251 CNS) | TGI (MCF7 breast) | TGI (EKVX NSCLC) | TGI (OVCAR-4 ovarian) | TGI (SK-MEL-2 melanoma) | TGI (COLO 205 colon) | TGI (SNB-75 CNS) | TGI (OVCAR-5 ovarian) | TGI (K-562 leukemia) | TGI (OVCAR-8 ovarian) | TGI (HCT-116 colon) | TGI (SF-295 CNS) | TGI (SK-MEL-28 melanoma) | TGI (ACHN renal) | TGI (HOP-92 NSCLC) | TGI (KM12 colon) | TGI (CAKI-1 renal) | TGI (IGROV1 ovarian) | TGI (HT29 colon) | TGI (NCI-H23 lung) | TGI (NCI-H460 lung) | TGI (SK-MEL-5 melanoma) | TGI (MDA-MB-231 breast) | TGI (A498 renal) | TGI (HOP-62 NSCLC) | TGI (UACC-257 melanoma) | TGI (RXF 393 renal) | TGI (DU-145 prostate) | TGI (MALME-3M melanoma) | TGI (SNB-19 CNS) | TGI (RPMI-8226 leukemia) | TGI (M14 melanoma) | TGI (BT-549 breast) | TGI (TK-10 renal) | TGI (CCRF-CEM leukemia) | TGI (HL-60(TB) leukemia) | TGI (MDA-N) | TGI (SF-268 CNS) | TGI (HCC-2998 colon) | TGI (OVCAR-3 ovarian) | TGI (UACC-62 melanoma) | TGI (SK-OV-3 ovarian) | TGI (NCI/ADR-RES ovarian) | TGI (LOX IMVI melanoma) | TGI (A549 NSCLC) | TGI (UO-31 renal) | TGI (NCI-H522 lung) | TGI (SW-620 colon) | TGI (MOLT-4 leukemia)

CSc1nc2c(c(=O)[nH]1)N=C(c1ccc([N+](=O)[O-])cc1)CC(c1ccccc1)N2 (stereo not drawn)
88.5 µM: TGI (SK-MEL-2 melanoma)
91.7 µM: TGI (SW-620 colon)
57.5 µM: TGI (RPMI-8226 leukemia)
76.2 µM: TGI (SF-539 CNS)
92.4 µM: TGI (LOX IMVI melanoma)
74.7 µM: TGI (SNB-75 CNS)
78.8 µM: TGI (MDA-MB-231 breast)
> 100 µM: TGI (MDA-MB-435) | TGI (786-0 renal) | TGI (NCI-H226 lung) | TGI (PC-3 prostate) | TGI (U251 CNS) | TGI (EKVX NSCLC) | TGI (OVCAR-4 ovarian) | TGI (COLO 205 colon) | TGI (OVCAR-5 ovarian) | TGI (K-562 leukemia) | TGI (OVCAR-8 ovarian) | TGI (SF-295 CNS) | TGI (SK-MEL-28 melanoma) | TGI (ACHN renal) | TGI (HOP-92 NSCLC) | TGI (CAKI-1 renal) | TGI (IGROV1 ovarian) | TGI (NCI-H23 lung) | TGI (SN12C renal) | TGI (A498 renal) | TGI (HOP-62 NSCLC) | TGI (UACC-257 melanoma) | TGI (RXF 393 renal) | TGI (DU-145 prostate) | TGI (MALME-3M melanoma) | TGI (SNB-19 CNS) | TGI (M14 melanoma) | TGI (BT-549 breast) | TGI (CCRF-CEM leukemia) | TGI (MDA-N) | TGI (OVCAR-3 ovarian) | TGI (UACC-62 melanoma) | TGI (NCI/ADR-RES ovarian) | TGI (A549 NSCLC) | TGI (UO-31 renal) | TGI (NCI-H522 lung) | TGI (SR leukemia) | TGI (MOLT-4 leukemia)
57.6 µM: TGI (MCF7 breast)
33.2 µM: TGI (KM12 colon)
55.6 µM: TGI (SK-MEL-5 melanoma)
57.7 µM: TGI (HCC-2998 colon)
39.7 µM: TGI (HL-60(TB) leukemia)
47.1 µM: TGI (HCT-116 colon)
48 µM: TGI (HT29 colon)

CCOC(=O)/C(C=Nc1c(C)n(C)n(-c2ccccc2)c1=O)=C(/C)O
> 100 µM: TGI (MDA-MB-435) | TGI (HCT-15 colon) | TGI (786-0 renal) | TGI (NCI-H226 lung) | TGI (PC-3 prostate) | TGI (U251 CNS) | TGI (MCF7 breast) | TGI (EKVX NSCLC) | TGI (OVCAR-4 ovarian) | TGI (SK-MEL-2 melanoma) | TGI (COLO 205 colon) | TGI (SNB-75 CNS) | TGI (OVCAR-5 ovarian) | TGI (K-562 leukemia) | TGI (SF-539 CNS) | TGI (OVCAR-8 ovarian) | TGI (HCT-116 colon) | TGI (SF-295 CNS) | TGI (ACHN renal) | TGI (HOP-92 NSCLC) | TGI (KM12 colon) | TGI (CAKI-1 renal) | TGI (IGROV1 ovarian) | TGI (NCI-H23 lung) | TGI (SN12C renal) | TGI (SK-MEL-5 melanoma) | TGI (MDA-MB-231 breast) | TGI (A498 renal) | TGI (UACC-257 melanoma) | TGI (RXF 393 renal) | TGI (DU-145 prostate) | TGI (MALME-3M melanoma) | TGI (RPMI-8226 leukemia) | TGI (M14 melanoma) | TGI (BT-549 breast) | TGI (TK-10 renal) | TGI (CCRF-CEM leukemia) | TGI (HL-60(TB) leukemia) | TGI (MDA-N) | TGI (HCC-2998 colon) | TGI (OVCAR-3 ovarian) | TGI (UACC-62 melanoma) | TGI (SK-OV-3 ovarian) | TGI (NCI/ADR-RES ovarian) | TGI (LOX IMVI melanoma) | TGI (A549 NSCLC) | TGI (UO-31 renal) | TGI (NCI-H522 lung) | TGI (SR leukemia) | TGI (SW-620 colon) | TGI (MOLT-4 leukemia)

COC(=O)[C@@H]1CC(C(C[N+](=O)[O-])c2ccc(O[Si](C)(C)C(C)(C)C)cc2)C(=O)N1C(=O)OC(C)(C)C (stereo partly drawn)
72.4 µM and 95 µM: TGI (RPMI-8226 leukemia)
> 100 µM: TGI (MDA-MB-435) | TGI (786-0 renal) | TGI (NCI-H226 lung) | TGI (PC-3 prostate) | TGI (U251 CNS) | TGI (MCF7 breast) | TGI (EKVX NSCLC) | TGI (HS 578T breast) | TGI (OVCAR-4 ovarian) | TGI (SK-MEL-2 melanoma) | TGI (COLO 205 colon) | TGI (SNB-75 CNS) | TGI (OVCAR-5 ovarian) | TGI (K-562 leukemia) | TGI (SF-539 CNS) | TGI (OVCAR-8 ovarian) | TGI (HCT-116 colon) | TGI (SF-295 CNS) | TGI (SK-MEL-28 melanoma) | TGI (ACHN renal) | TGI (HOP-92 NSCLC) | TGI (KM12 colon) | TGI (CAKI-1 renal) | TGI (IGROV1 ovarian) | TGI (HT29 colon) | TGI (SN12C renal) | TGI (SK-MEL-5 melanoma) | TGI (MDA-MB-231 breast) | TGI (A498 renal) | TGI (HOP-62 NSCLC) | TGI (UACC-257 melanoma) | TGI (RXF 393 renal) | TGI (DU-145 prostate) | TGI (MALME-3M melanoma) | TGI (SNB-19 CNS) | TGI (M14 melanoma) | TGI (TK-10 renal) | TGI (CCRF-CEM leukemia) | TGI (HL-60(TB) leukemia) | TGI (MDA-N) | TGI (SF-268 CNS) | TGI (OVCAR-3 ovarian) | TGI (SK-OV-3 ovarian) | TGI (T-47D breast) | TGI (LOX IMVI melanoma) | TGI (A549 NSCLC) | TGI (UO-31 renal) | TGI (NCI-H522 lung) | TGI (SR leukemia) | TGI (SW-620 colon) | TGI (MOLT-4 leukemia)
inactive: GI50 (NCI-H226 lung) 12.6 µM and 35 µM | GI50 (PC-3 prostate) > 100 µM and 34.5 µM | GI50 (COLO 205 colon) > 100 µM and 26.2 µM | GI50 (ACHN renal) 28.1 µM and > 100 µM | GI50 (HT29 colon) > 100 µM and 47.8 µM | GI50 (SK-MEL-5 melanoma) > 100 µM and 39.9 µM | GI50 (RPMI-8226 leukemia) 3.2 µM and 23.7 µM | GI50 (HL-60(TB) leukemia) > 100 µM and 46.2 µM | GI50 (MOLT-4 leukemia) 14.4 µM and 31.4 µM
